According to US10695334B2, “Heteroaromatic carboxamide derivatives as plasma kallikrein inhibitors” (Boehringer Ingelheim International GmbH, priority 2018, dated 2020):

Assays:
Assay type in all cases: biochemical
[1] = molecular target: T1, Human PKK (Homo sapiens (Human), UniProt P03952); experiment: Inhibition of PKK, endpoint assay (human PKK); conditions: substrate H-Pro-Phe-Arg-AMC, 1 h room temperature
Protocol: Subsequently, PPACK II (Calbiochem) was added as a stop solution to achieve a final concentration of 1 μM and fluorescence was measured using an Envision Reader (PerkinElmer) with the wavelength excitation setting of 355 nm and the wavelength emission setting of 460 nm.

[2] = molecular target: PKK in kaolin activated human platelet poor plasma (Homo sapiens (Human), UniProt P03952); experiment: Inhibition of PKK in kaolin activated human PPP; conditions: global fit over 25, 75, 250, 750 μg/mL kaolin
Protocol: Platelet poor plasma (PPP) obtained from human wholeblood, anticoagulated with Na-Citrat, was incubated with various concentrations of the test compound together with either 25, 75, 250, or 750 μg/mL kaolin in assay buffer for 20 min at 37° C. such that for each kaolin dose used a concentration response was obtained for the test compound.

[3] = molecular target: T1, Human PKK; experiment: Inhibition of PKK (Ki), kinetic assay; conditions: 24° C., IC50 corrected for KM
Protocol: Measurements were performed in a kinetic interval every 2nd minute for 16 min using a Spectramax M5 (Molecular Devices) with the following settings of the wavelength excitation of 350 nm and wavelength emission of 450 nm. The number of the compound corresponds to the number of the Example in the experimental section.
The pIC50 values were then fitted using a four-parametric fitting procedure using GraphPad Prism (version 6; GraphPad Software, Inc.).
Where the IC50 is in molar and the KM value in mM.

[4] = molecular target: human TK1 (Homo sapiens (Human), UniProt P06870); experiment: Inhibition of TK1 (Ki); conditions: column head prints IC50, text above the table says Ki values
Outline: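 Trypsin-activated human TK1 (31.25 nM or 1 U/mL) incubated at 24 °C with 0.1 mM H-Pro-Phe-Arg-AMC and compound in pH 7.8 Tris/NaCl buffer with 0.1% BSA, 1% DMSO; fluorescence read kinetically over 16 min. IC50 from Vmax (2-12 min) four-parameter fit, converted to Ki using substrate KM.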

human TK1, sequence (P06870 25-262): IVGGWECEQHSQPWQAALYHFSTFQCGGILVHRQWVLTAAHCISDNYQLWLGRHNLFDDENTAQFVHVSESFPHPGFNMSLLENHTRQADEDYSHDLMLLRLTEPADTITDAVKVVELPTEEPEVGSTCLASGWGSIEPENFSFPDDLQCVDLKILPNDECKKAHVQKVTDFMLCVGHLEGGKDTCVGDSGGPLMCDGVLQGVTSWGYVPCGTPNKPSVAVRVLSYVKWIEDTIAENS
PKK in kaolin activated human platelet poor plasma, sequence (P03952 391-638): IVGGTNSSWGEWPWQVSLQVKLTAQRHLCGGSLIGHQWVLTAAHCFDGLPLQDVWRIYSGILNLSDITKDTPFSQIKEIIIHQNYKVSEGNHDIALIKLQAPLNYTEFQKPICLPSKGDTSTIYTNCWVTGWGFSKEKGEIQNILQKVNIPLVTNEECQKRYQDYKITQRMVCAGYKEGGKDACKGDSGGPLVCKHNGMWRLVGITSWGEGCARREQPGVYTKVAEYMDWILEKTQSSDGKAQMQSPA
PKK in kaolin activated human platelet poor plasma, sequence (P03952 20-390 partner): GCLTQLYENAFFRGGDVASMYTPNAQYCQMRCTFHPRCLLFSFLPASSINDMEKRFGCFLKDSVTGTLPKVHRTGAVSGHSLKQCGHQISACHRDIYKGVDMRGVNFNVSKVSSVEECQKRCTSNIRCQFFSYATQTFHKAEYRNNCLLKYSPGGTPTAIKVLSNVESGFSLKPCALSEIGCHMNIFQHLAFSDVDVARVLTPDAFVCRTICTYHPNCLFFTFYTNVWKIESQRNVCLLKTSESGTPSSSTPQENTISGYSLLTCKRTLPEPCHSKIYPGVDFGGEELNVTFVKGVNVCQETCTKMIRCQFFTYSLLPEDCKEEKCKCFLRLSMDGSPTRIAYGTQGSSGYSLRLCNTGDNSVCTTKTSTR
T1 sequence (P03952 391-638): as the sequence (P03952 391-638) above
T1 sequence (P03952 20-390 partner): as the sequence (P03952 20-390 partner) above

SMILES	IC50 [1]	IC90 [2]	Ki [3]	IC50 [4]
Cc1nc(N2C[C@@H]3[C@H](C)[C@@H]3C2)ccc1Cn1cc(C(=O)N[C@@H]2CCc3c2n[nH]c3C)cn1 [Example 47, N-[(6R)-3-Methyl-2H,4H,5H,6H-cyclopenta[c]pyrazol-6-yl]-1-({2-methyl-6-[(1R,5S,6S)-6-methyl-3-azabicyclo[3.1.0]hexan-3-yl]pyridin-3-yl}methyl)-1H-pyrazole-4-carboxamide]	0.9 nM	445 nM	0.4 nM	> 10000 nM
Cc1nc(N2CC3(CCC3)C2)ccc1Cn1cc(C(=O)N[C@@H]2CCc3c2n[nH]c3C)cn1 [Example 54, 1-[(6-{2-Azaspiro[3.31]heptan-2-yl}-2-methylpyridin-3-yl)methyl]-N-[(6R)-3-methyl-2H,4H,5H,6H-cyclopenta[c]pyrazol-6-yl]-1H-pyrazole-4-]	2 nM	944 nM	1 nM	> 10000 nM
Cc1nc(N2CC(C)(F)C2)ccc1Cn1cc(C(=O)N[C@@H]2CCc3c2n[nH]c3C)cn1 [Example 77, 1-{[6-(3-Fluoro-3-methylazetidin-1-yl)-2-methylpyridin-3-yl]methyl}-N-[(6R)-3-methyl-2H,4H,5H,6H-cyclopenta[c]pyrazol-6-yl]-1H-pyrazole-4-carboxamide]	5 nM	1110 nM	4 nM	> 10000 nM
Cc1nc(N2CC3CC3C2)ncc1Cn1cc(C(=O)N[C@@H]2CCc3c(C)n[nH]c32)nn1 (stereo partly drawn) [Example 87, 1-[(2-{3-Azabicyclo[3.1.0]hexan-3-yl}-4-methylpyrimidin-5-yl)methyl]-N-[(6R)-3-methyl-1H,4H,5H,6H-cyclopenta[c]pyrazol-6-yl]-1H-1,2,3-triazole-4-carboxamide]	2 nM	1170 nM	1 nM	> 10000 nM
Cc1nc(N2CC3CC3C2)ccc1Cn1cc(C(=O)N[C@@H]2CCc3c2n[nH]c3C)nc1C (stereo partly drawn) [Example 97, 1-[(6-(3-Azabicyclo[3.1.0]hexan-3-yl}-2-methyl-pyridin-3-yl)methyl]-2-methyl-N-[(6R)-3-methyl-2H,4H,5H,6H-cyclopenta[c]pyrazol-6-yl]-1H-imidazole-4-carboxamide]	2 nM	302 nM	1 nM	> 10000 nM
Cc1nc(N2CC3CC3C2)ccc1Cn1cc(C(=O)N[C@@H]2CCc3c2n[nH]c3C)nc1C(F)(F)F (stereo partly drawn) [Example 98, 1-[(6-{3-Azabicyclo[3.1.0]hexan-3-yl}-2-methyl-pyridin-3-yl)methyl]-N-[(6R)-3-methyl-2H,4H,5H,6H-cyclopenta[c]pyrazol-6-yl]-2-(trifluoromethyl)-1H-imidazole-4-carboxamide]	5 nM	3140 nM	6 nM	> 10000 nM
Cc1[nH]nc2c1CC[C@H]2NC(=O)c1cn(Cc2ccc(N3CC4CC4C3)nc2)cn1 (stereo partly drawn) [Example 103, 1-[(6-{3-Azabicyclo[3.1.0]hexan-3-yl}pyridin-3-yl)-methyl]-N-[(6R)-3-methyl-2H,4H,5H,6H-cyclo-penta[c]pyrazol-6-yl]-1H-imidazole-4-carboxamide]	2 nM	416 nM	3 nM	> 10000 nM
Cc1nc(N2CC3CC3C2)ccc1Cn1cc(C(=O)N[C@@H]2CCc3c2n[nH]c3C)c2cc(C(=O)O)ccc21 (stereo partly drawn) [Example 108, 1-[(6-{3-Azabicyclo[3.1.0]hexan-3-yl}-2-methylpyridin-3-yl)methyl]-3-{[(6R)-3-methyl-2H,4H,5H,6H-cyclopenta[c]pyrazol-6-yl]carbamoyl}-1H-indole-5-carboxylic acid]	1 nM	776 nM	6 nM	> 10000 nM

The remaining lines, values ahead:

IC50 [1]	IC90 [2]	Ki [3]	IC50 [4]	SMILES
4 nM	5120 nM	1 nM	> 10000 nM	Cc1nc(N2CCCC2)ccc1Cn1cc(C(=O)N[C@@H]2CCc3c2n[nH]c3C)cn1 [Example 52, N-[(6R)-3-Methyl-2H,4H,5H,6H-cyclopenta[c]pyrazol-6-yl]-1-{[2-methyl-6-(pyrrolidin-1-yl)pyridin-3-yl]methyl}-1H-pyrazole-4-carboxamide]
2 nM	708 nM	1 nM	> 10000 nM	Cc1nc(N2CCC(C)(C#N)C2)ccc1Cn1cc(C(=O)N[C@@H]2CCc3c2n[nH]c3C)cn1 (stereo partly drawn) [Example 71, 1-{[6-(3-Cyano-3-methylpyrrolidin-1-yl)-2-methylpyridin-3-yl]methyl}-N-[(6R)-3-methyl-2H,4H,5H,6H-cyclopenta[c]pyrazol-6-yl]-1H-pyrazole-4-carboxamide]
2 nM	781 nM	1 nM	> 10000 nM	Cc1nc(N2CC3CC3C2)ccc1Cn1cc(C(=O)N[C@@H]2CCc3c2n[nH]c3C)nc1C1CC1 (stereo partly drawn) [Example 96, 1-[(6-{3-Azabicyclo[3.1.0]hexan-3-yl}-2-methyl-pyridin-3-yl)methyl]-2-cyclopropyl-N-[(6R)-3-methyl-2H,4H,5H,6H-cyclopenta[c]pyrazol-6-yl]-1H-imidazole-4-carboxamide]
0.4 nM	303 nM	0.8 nM	> 10000 nM	Cc1nc(N2C[C@@H]3[C@H](C)[C@@H]3C2)ccc1Cn1cnc(C(=O)N[C@@H]2CCc3c2n[nH]c3C)c1 [Example 100, N-[(6R)-3-Methyl-2H,4H,5H,6H-cyclopenta[c]-pyrazol-6-yl]-1-({2-methyl-6-[(1R,5S,6R)-6-methyl-3-azabicyclo[3.1.0]hexan-3-yl]pyridin-3-yl}methyl)-1H-imidazole-4-carboxamide]
2 nM	727 nM	2 nM	> 10000 nM	Cc1nc(N2C[C@@H]3[C@H](C)[C@@H]3C2)ncc1Cn1cnc(C(=O)N[C@@H]2CCc3c2n[nH]c3C)c1 [Example 101, 1-({4-Methyl-2-[(1R,5S,6R)-6-methyl-3-azabicyclo[3.1.0]hexan-3-yl]pyrimidin-5-yl}methyl)-N-[(6R)-3-methyl-2H,4H,5H,6H-cyclopenta[c]-pyrazol-6-yl]-1H-imidazole-4-carboxamide]
1 nM	5480 nM	4 nM	> 10000 nM	Cc1nc(N2CC3CC3C2)ccc1Cn1cc(C(=O)N[C@@H]2CCc3c2n[nH]c3C)nc1Cl (stereo partly drawn) [Example 102, 1-[(6-{3-Azabicyclo[3.1.0]hexan-3-yl}-2-methyl-pyridin-3-yl)methyl]-2-chloro-N-[(6R)-3-methyl-2H,4H,5H,6H-cyclopenta[c]pyrazol-6-yl]-1H-imidazole-4-carboxamide]
3 nM	444 nM	3 nM	> 10000 nM	Cc1[nH]nc2c1CC[C@H]2NC(=O)c1cn(Cc2ccc(N3CC4(CC4)C3)nc2)cn1 [Example 104, 1-[(6-{5-Azaspiro[2.3]hexan-5-yl}pyridin-3-yl)-methyl]-N-[(6R)-3-methyl-2H,4H,5H,6H-cyclo-penta[c]pyrazol-6-yl]-1H-imidazole-4-carboxamide]
